Test results from PubChem BioAssay AID1259407 (Chemical Carcinogenesis Research Information System (CCRIS), 2018).
Active and inactive are the calls of the source. No rule for the calls is given here.

Tested on: CCRIS mutagenicity, Ames/micronucleus/aberration tests
Test: CCRIS mutagenicity studies

C[C@@H]1Cc2c(Cl)cc(C(=O)NC(Cc3ccccc3)C(=O)O)c(O)c2C(=O)O1 (stereo partly specified)
mutagenic call (End Point: IN VITRO CHROMOSOMAL ABERRATIONS, Test System: BOVINE LYMPHOCYTES, Metabolic Activation: NONE): active; positive (structural changes)
mutagenic call (End Point: IN VIVO CHROMOSOMAL ABERRATIONS, Test System: SPLENOCYTES, Species: RAT, Strain/Sex: FISCHER 344/MALE, Route: ORAL (GAVAGE)): inactive; negative
mutagenic call (End Point: In vivo chromosomal aberrations, Test System: Bone marrow cells, Species: Mouse, Strain/Sex: Balb/C / Male, Route: Intraperitoneal): active; positive (structural changes)
mutagenic call (End Point: In vivo micronucleus, Test System: Bone marrow polychromatic erythrocytes, Species: Rat, Strain/Sex: Sprague-Dawley/Male, Route: Oral): active; positive. addition of inula crithmoides extract inhibited the response
mutagenic call (Test System: AMES SALMONELLA TYPHIMURIUM, Strain/Indicator: TA97, Metabolic Activation: HAMSTER, LIVER, S-9, AROCLOR 1254 (10 OR 30%), Method: PREINCUBATION): inactive; negative
mutagenic call (Test System: AMES SALMONELLA TYPHIMURIUM, Strain/Indicator: TA97, Metabolic Activation: HAMSTER, LIVER, S-9, AROCLOR 1254, Method: PREINCUBATION): inactive; negative
mutagenic call (Test System: AMES SALMONELLA TYPHIMURIUM, Strain/Indicator: TA97, Metabolic Activation: NONE, Method: PREINCUBATION): inactive; negative
mutagenic call (Test System: AMES SALMONELLA TYPHIMURIUM, Strain/Indicator: TA97, Metabolic Activation: RAT, LIVER, S-9, AROCLOR 1254 (10 OR 30%), Method: PREINCUBATION): inactive; negative
mutagenic call (Test System: AMES SALMONELLA TYPHIMURIUM, Strain/Indicator: TA97, Metabolic Activation: RAT, LIVER, S-9, AROCLOR 1254, Method: PREINCUBATION): inactive; negative
mutagenic call (Test System: AMES SALMONELLA TYPHIMURIUM, Strain/Indicator: TA97A, Metabolic Activation: NONE, Method: PREINCUBATION): inactive; negative
mutagenic call (Test System: AMES SALMONELLA TYPHIMURIUM, Strain/Indicator: TA97A, Metabolic Activation: RAT LIVER S-9, Method: PREINCUBATION): inactive; negative
mutagenic call (Test System: AMES SALMONELLA TYPHIMURIUM, Strain/Indicator: TA98, Metabolic Activation: HAMSTER, LIVER, S-9, AROCLOR 1254 (10 OR 30%), Method: PREINCUBATION): inactive; negative
mutagenic call (Test System: AMES SALMONELLA TYPHIMURIUM, Strain/Indicator: TA98, Metabolic Activation: HAMSTER, LIVER, S-9, AROCLOR 1254, Method: PREINCUBATION): inactive; negative
mutagenic call (Test System: AMES SALMONELLA TYPHIMURIUM, Strain/Indicator: TA98, Metabolic Activation: HUMAN HEPG2 CELL S-9, Method: PREINCUBATION): inactive; negative
mutagenic call (Test System: AMES SALMONELLA TYPHIMURIUM, Strain/Indicator: TA98, Metabolic Activation: MOUSE KIDNEY S-9, NADP OR ARACHIDONIC ACID (10%), Method: MICROMETHOD): active; positive
mutagenic call (Test System: AMES SALMONELLA TYPHIMURIUM, Strain/Indicator: TA98, Metabolic Activation: MOUSE LIVER S-9 (10%), Method: MICROMETHOD): inactive; negative
mutagenic call (Test System: AMES SALMONELLA TYPHIMURIUM, Strain/Indicator: TA98, Metabolic Activation: NONE, Method: PREINCUBATION): inactive; negative
mutagenic call (Test System: AMES SALMONELLA TYPHIMURIUM, Strain/Indicator: TA98, Metabolic Activation: NONE, Method: STANDARD PLATE): inactive; negative
mutagenic call (Test System: AMES SALMONELLA TYPHIMURIUM, Strain/Indicator: TA98, Metabolic Activation: RAT LIVER S-9, AROCLOR 1254 (10%), Method: MICROMETHOD): inactive; negative
mutagenic call (Test System: AMES SALMONELLA TYPHIMURIUM, Strain/Indicator: TA98, Metabolic Activation: RAT LIVER S-9, Method: PREINCUBATION): inactive; negative
mutagenic call (Test System: AMES SALMONELLA TYPHIMURIUM, Strain/Indicator: TA98, Metabolic Activation: RAT, LIVER, S-9, AROCLOR 1254 (10 OR 30%), Method: PREINCUBATION): inactive; negative
mutagenic call (Test System: AMES SALMONELLA TYPHIMURIUM, Strain/Indicator: TA98, Metabolic Activation: RAT, LIVER, S-9, AROCLOR 1254, Method: PREINCUBATION): inactive; negative
mutagenic call (Test System: AMES SALMONELLA TYPHIMURIUM, Strain/Indicator: TA98, Metabolic Activation: RAT, LIVER, S-9, AROCLOR 1254, Method: STANDARD PLATE): inactive; negative
mutagenic call (Test System: AMES SALMONELLA TYPHIMURIUM, Strain/Indicator: TA100, Metabolic Activation: HAMSTER, LIVER, S-9, AROCLOR 1254 (10 OR 30%), Method: PREINCUBATION): inactive; negative
mutagenic call (Test System: AMES SALMONELLA TYPHIMURIUM, Strain/Indicator: TA100, Metabolic Activation: HAMSTER, LIVER, S-9, AROCLOR 1254, Method: PREINCUBATION): inactive; negative
mutagenic call (Test System: AMES SALMONELLA TYPHIMURIUM, Strain/Indicator: TA100, Metabolic Activation: HUMAN HEPG2 CELL S-9, Method: PREINCUBATION): inactive; negative
mutagenic call (Test System: AMES SALMONELLA TYPHIMURIUM, Strain/Indicator: TA100, Metabolic Activation: NONE, Method: STANDARD PLATE): inactive; negative
mutagenic call (Test System: AMES SALMONELLA TYPHIMURIUM, Strain/Indicator: TA100, Metabolic Activation: RAT LIVER S-9, Method: PREINCUBATION): inactive; negative
mutagenic call (Test System: AMES SALMONELLA TYPHIMURIUM, Strain/Indicator: TA100, Metabolic Activation: RAT, LIVER, MICROSOMES, PHENOBARBITAL, Method: STANDARD PLATE): active; positive
mutagenic call (Test System: AMES SALMONELLA TYPHIMURIUM, Strain/Indicator: TA100, Metabolic Activation: RAT, LIVER, S-9, AROCLOR 1254 (10 OR 30%), Method: PREINCUBATION): inactive; negative
mutagenic call (Test System: AMES SALMONELLA TYPHIMURIUM, Strain/Indicator: TA100, Metabolic Activation: RAT, LIVER, S-9, AROCLOR 1254, Method: PREINCUBATION): inactive; negative
mutagenic call (Test System: AMES SALMONELLA TYPHIMURIUM, Strain/Indicator: TA100, Metabolic Activation: RAT, LIVER, S-9, AROCLOR 1254, Method: STANDARD PLATE): inactive; negative
mutagenic call (Test System: AMES SALMONELLA TYPHIMURIUM, Strain/Indicator: TA100, Metabolic Activation: RAT, LIVER, S-9, PHENOBARBITAL, Method: PREINCUBATION): inactive; negative
mutagenic call (Test System: AMES SALMONELLA TYPHIMURIUM, Strain/Indicator: TA102, Metabolic Activation: NONE, Method: PREINCUBATION): inactive; negative
mutagenic call (Test System: AMES SALMONELLA TYPHIMURIUM, Strain/Indicator: TA102, Metabolic Activation: NONE, Method: STANDARD PLATE): inactive; negative
mutagenic call (Test System: AMES SALMONELLA TYPHIMURIUM, Strain/Indicator: TA102, Metabolic Activation: RAT LIVER S-9, Method: PREINCUBATION): inactive; negative
